Data published in patent publication US20140271604A1, “HDAC Inhibitor Polymorphic Forms and Methods of Use” (priority 2013, published 2014).

Assays:
[1] = Storage of samples under ambient conditions, form assigned by XRPD; type: physicochemical
[2] = Stability study in climate chamber (48-72 h, 40° C./75% RH), form assigned by XRPD; conditions: for XRPD Form b: form assigned after the stability studies / XRPD Form c: form assigned after the stability studies: at 40° C./75% RH; for XRPD Form b: form assigned after the stability studies: samples from anti-solvent addition, label = form before stability; for Stability after storage in a climate chamber / XRPD pattern following storage exposure in the climate chamber: 48 to 72 hours at 40 degrees centigrade and 75% relative humidity
Method: Solubility assessment experiments were carried out in a variety of solvents followed by storage in a climate chamber for 48 to 72 hours at 40 degrees centigrade and 75% relative humidity.

[3] = 1-1.5 weeks ambient, slurry conversion, Table 9, label = form after slurry
[4] = 48-72 H, samples from cooling-evaporative crystallization, Table 7, label = form after recrystallization
[5] = 48-72 H, samples from slurry conversion, Table 9, label = form after slurry
[6] = 1-1.5 weeks ambient, cooling-evaporative crystallization, Table 7, label = form after recrystallization
[7] = 1-1.5 weeks ambient, cooling-evaporative crystallization, Table 6, label = form after recrystallization
[8] = 48-72 H, samples from cooling-evaporative crystallization, Table 6, label = form after recrystallization
[9] = 1.5-2 weeks ambient, solvent-drop grinding, Table 8, label = form after grinding

CC(C)[C@H](C(=O)Nc1ccc(C(=O)NO)cc1)c1ccccc1 [Form F1, (S)—N-hydroxy-4-(3-methyl-2-phenylbutanamido)benzamide]
XRPD Form b: form assigned after storage under ambient conditions [1, 3]: Form A_wet**
XRPD Form b: form assigned after the stability studies ([2]; 48-72 H, Table 3): Form A + Am*
XRPD Form b: form assigned after the stability studies ([2]; 48-72 H, Table 5): Form A
XRPD Form c: form assigned after the stability studies [2, 4]: Form A
XRPD Form c: form assigned after the stability studies [2, 5]: Form A

CC(C)[C@H](C(=O)Nc1ccc(C(=O)NO)cc1)c1ccccc1 [Form F2, (S)—N-hydroxy-4-(3-methyl-2-phenylbutanamido)benzamide]
XRPD Form b: form assigned after storage under ambient conditions [1, 6]: Form A3
XRPD Form c: form assigned after the stability studies [2, 4]: Form A

CC(C)[C@H](C(=O)Nc1ccc(C(=O)NO)cc1)c1ccccc1 [Form F3, (S)—N-hydroxy-4-(3-methyl-2-phenylbutanamido)benzamide]
XRPD Form c: form assigned after the stability studies [2, 4]: Form A

CC(C)[C@H](C(=O)Nc1ccc(C(=O)NO)cc1)c1ccccc1 [Form F4_wet, (S)—N-hydroxy-4-(3-methyl-2-phenylbutanamido)benzamide]
XRPD Form b: form assigned after storage under ambient conditions [1, 3]: Form A + Am*
XRPD Form c: form assigned after the stability studies [2, 5]: Form A + Am*

CC(C)[C@H](C(=O)Nc1ccc(C(=O)NO)cc1)c1ccccc1 [Form G_gel, (S)—N-hydroxy-4-(3-methyl-2-phenylbutanamido)benzamide]
XRPD Form b: form assigned after the stability studies ([2]; 48-72 H, Table 3): Form A + Am*

CC(C)[C@H](C(=O)Nc1ccc(C(=O)NO)cc1)c1ccccc1 [Form H1, (S)—N-hydroxy-4-(3-methyl-2-phenylbutanamido)benzamide]
XRPD Form b: form assigned after storage under ambient conditions [1, 7]: Form A
XRPD Form b: form assigned after storage under ambient conditions [1, 3]: Form A
XRPD Form c: form assigned after the stability studies [2, 8]: Form A
XRPD Form c: form assigned after the stability studies [2, 5]: Form A

CC(C)[C@H](C(=O)Nc1ccc(C(=O)NO)cc1)c1ccccc1 [Form H2, (S)—N-hydroxy-4-(3-methyl-2-phenylbutanamido)benzamide]
XRPD Form b: form assigned after storage under ambient conditions [1, 9]: Form A2
XRPD Form c: form assigned after the stability studies ([2]; 46-72 H, samples from solvent-drop grinding, Table 8, label = form after grinding): Form A

CC(C)[C@H](C(=O)Nc1ccc(C(=O)NO)cc1)c1ccccc1 [Form J1, (S)—N-hydroxy-4-(3-methyl-2-phenylbutanamido)benzamide]
XRPD Form b: form assigned after storage under ambient conditions ([1]; 1-1.5 weeks ambient, cooling-evaporative crystallization, Table 7, label = form after recrystallization, slurry in dimethoxyethane/methanol): Form J2
XRPD Form b: form assigned after storage under ambient conditions [1, 3]: Form J1
XRPD Form b: form assigned after storage under ambient conditions [1, 9]: Form J1
XRPD Form c: form assigned after the stability studies [2, 5]: Form J1
Stability after storage in a climate chamber [2]: exhibited a particular degree of stability
XRPD pattern following storage exposure in the climate chamber [2]: remained unchanged

CC(C)[C@H](C(=O)Nc1ccc(C(=O)NO)cc1)c1ccccc1 [Form K_wet]
XRPD Form b: form assigned after storage under ambient conditions [1, 7]: Form A
XRPD Form c: form assigned after the stability studies [2, 8]: Form A

CC(C)[C@H](C(=O)Nc1ccc(C(=O)NO)cc1)c1ccccc1 [Form L1, (S)—N-hydroxy-4-(3-methyl-2-phenylbutanamido)benzamide]
XRPD Form b: form assigned after storage under ambient conditions [1, 7]: Form L1
XRPD Form b: form assigned after storage under ambient conditions [1, 6]: Form L1
XRPD Form c: form assigned after the stability studies [2, 8]: Form L1
XRPD Form c: form assigned after the stability studies [2, 4]: Form L1
Stability after storage in a climate chamber [2]: exhibited a particular degree of stability

CC(C)[C@H](C(=O)Nc1ccc(C(=O)NO)cc1)c1ccccc1 [Form L2, (S)—N-hydroxy-4-(3-methyl-2-phenylbutanamido)benzamide]
Stability after storage in a climate chamber [2]: exhibited a particular degree of stability

CC(C)[C@H](C(=O)Nc1ccc(C(=O)NO)cc1)c1ccccc1 [Form M1, (S)—N-hydroxy-4-(3-methyl-2-phenylbutanamido)benzamide]
XRPD Form b: form assigned after storage under ambient conditions [1, 6]: Form M1
XRPD Form c: form assigned after the stability studies [2, 4]: Form M1
Stability after storage in a climate chamber [2]: exhibited a particular degree of stability
XRPD pattern following storage exposure in the climate chamber [2]: remained unchanged

CC(C)[C@H](C(=O)Nc1ccc(C(=O)NO)cc1)c1ccccc1 [Form M2, (S)—N-hydroxy-4-(3-methyl-2-phenylbutanamido)benzamide]
XRPD Form b: form assigned after storage under ambient conditions [1, 6]: Form M2
XRPD Form c: form assigned after the stability studies [2, 4]: Form M2
Stability after storage in a climate chamber [2]: exhibited a particular degree of stability
XRPD pattern following storage exposure in the climate chamber [2]: remained unchanged

CC(C)[C@H](C(=O)Nc1ccc(C(=O)NO)cc1)c1ccccc1 [Form R, (S)—N-hydroxy-4-(3-methyl-2-phenylbutanamido)benzamide]
XRPD Form b: form assigned after storage under ambient conditions [1, 6]: Form R
XRPD Form c: form assigned after the stability studies [2, 4]: Form A

CC(C)C(C(=O)Nc1ccc(C(=O)NO)cc1)c1ccccc1 (centres unmarked) [Form S + Am]
XRPD Form c: form assigned after the stability studies [2, 4]: Form A_plus

CC(C)[C@H](C(=O)Nc1ccc(C(=O)NO)cc1)c1ccccc1 [Form T_wet, (S)—N-hydroxy-4-(3-methyl-2-phenylbutanamido)benzamide]
XRPD Form b: form assigned after the stability studies ([2]; 48-72 H, Table 5): Form A

CC(C)C(C(=O)Nc1ccc(C(=O)NO)cc1)c1ccccc1 (centres unmarked) [Form W + Am]
XRPD Form b: form assigned after the stability studies ([2]; 48-72 H, Table 3): Form A + Form
